{"source": "ChEMBL document CHEMBL5390201", "about": "“The Natural Alkaloid (-)-N-Hydroxyapiosporamide Suppresses Colorectal Tumor Progression as an NF-κB Pathway Inhibitor by Targeting the TAK1-TRAF6 Complex” (J Nat Prod, 2023)", "key": {"[1]": {"system": "HCT-116", "assay": "Induction of cell cycle arrest in human HCT-116 cells assessed as accumulation of cells at G2/M phase at 1 uM by RNase/PI staining based flow cytometry analysis (reference value: 23.15 %)", "format": "functional"}, "[2]": {"system": "HCT-116", "assay": "Cytotoxicity against human HCT-116 cells assessed as decrease in cell viability incubated for 48 hrs by SRB assay", "format": "functional, cell-based", "conditions": "HCT-116, 48 h"}, "[3]": {"system": "HCT-116", "assay": "Induction of apoptosis in human HCT-116 cells assessed as viable cells at 10 uM incubated for 24 hrs by Annexin V-FITC/PI staining based flow cytometric analysis (reference value: 88.8%)", "format": "functional", "conditions": "read-out: Activity"}}}
{"smiles": "C[C@@H]1CC[C@H]2[C@H](C(=O)c3c(O)c([C@@]4(O)CC[C@@H](O)[C@H]5O[C@H]54)cn(O)c3=O)[C@H](C)C=C[C@@H]2C1", "values": [{"measurement": "Activity", "setting": "[1]", "result": 20.12, "unit": "%"}, {"measurement": "IC50", "setting": "[2]", "result": 930, "unit": "nM"}, {"measurement": "viability at 10 µM", "setting": "[3]", "result": 11.1, "unit": "%"}]}
